Results: PMC5218480 (PLoS ONE, 2017)

Tested on: MV-4-11 cells
Experiment: Gene expression microarray analysis (Affymetrix PrimeView) and GSEA
Assay type: cell-based, human
Set-up: RFU PODN (11730768_x_at) / Fold change /veh PODN (11730768_x_at) / RFU LINC00158 (11744669_a_at) / Fold change /veh LINC00158 (11744669_a_at) / RFU DUSP10 (11751237_a_at) / Fold change /veh DUSP10 (11751237_a_at) / RFU ID3 (11757404_x_at) / Fold change /veh ID3 (11757404_x_at) / RFU PLEKHG5 (11737974_s_at) / Fold change /veh PLEKHG5 (11737974_s_at) / RFU LRRC4B (11730491_at) / Fold change /veh LRRC4B (11730491_at) / RFU GIMAP4 (11747438_a_at) / Fold change /veh GIMAP4 (11747438_a_at) / RFU KRT8 (11758183_x_at) / Fold change /veh KRT8 (11758183_x_at) / RFU CNN1 (11734310_a_at) / Fold change /veh CNN1 (11734310_a_at) / RFU VPS37D (11726825_at) / Fold change /veh VPS37D (11726825_at) / RFU C10orf10 (11716522_x_at) / Fold change /veh C10orf10 (11716522_x_at) / RFU KIR2DL2 /// KIR2DL4 /// KIR2DL5A /// KIR2DL5B /// KIR2DS1 /// KIR2DS2 /// KIR2DS3 /// KIR2DS4 /// KIR3DL3 /// KIR3DL3 /// KIR3DS1 (11738374_at) / Fold change /veh KIR2DL2 /// KIR2DL4 /// KIR2DL5A /// KIR2DL5B /// KIR2DS1 /// KIR2DS2 /// KIR2DS3 /// KIR2DS4 /// KIR3DL3 /// KIR3DL3 /// KIR3DS1 (11738374_at) / RFU C1QL1 (11718748_at) / Fold change /veh C1QL1 (11718748_at) / RFU TMPRSS4 (11747572_a_at) / Fold change /veh TMPRSS4 (11747572_a_at) / RFU HAMP (11756126_x_at) / Fold change /veh HAMP (11756126_x_at) / RFU RNFT2 (11725882_a_at) / Fold change /veh RNFT2 (11725882_a_at) / RFU NR4A2 (11747474_a_at) / Fold change /veh NR4A2 (11747474_a_at) / RFU ABCC12 (11746883_a_at) / Fold change /veh ABCC12 (11746883_a_at) / RFU TMEM136 (11760407_x_at) / Fold change /veh TMEM136 (11760407_x_at) / RFU CLDN22 /// WWC2 (11732394_at) / Fold change /veh CLDN22 /// WWC2 (11732394_at) / RFU HLA-DPB1 (11760878_x_at) / Fold change /veh HLA-DPB1 (11760878_x_at) / RFU SPINT1 (11716480_a_at) / Fold change /veh SPINT1 (11716480_a_at) / RFU GAP43 (11754022_s_at) / Fold change /veh GAP43 (11754022_s_at) / RFU A4GNT (11735810_at) / Fold change /veh A4GNT (11735810_at) / RFU PRB3 (11715151_x_at) / Fold change /veh PRB3 (11715151_x_at) / RFU TUBB4B (11761932_at) / Fold change /veh TUBB4B (11761932_at) / RFU CAPN14 (11732068_a_at) / Fold change /veh CAPN14 (11732068_a_at) / RFU TMCC2 (11721928_a_at) / Fold change /veh TMCC2 (11721928_a_at) / RFU IRGQ (11745062_a_at) / Fold change /veh IRGQ (11745062_a_at) / RFU FAM174B (11720279_a_at) / Fold change /veh FAM174B (11720279_a_at) / RFU TMPRSS4 (11748680_a_at) / Fold change /veh TMPRSS4 (11748680_a_at) / RFU FAM212B (11763350_a_at) / Fold change /veh FAM212B (11763350_a_at) / RFU PLEKHG5 (11743358_a_at) / Fold change /veh PLEKHG5 (11743358_a_at) / RFU ZSCAN30 (11745921_a_at) / Fold change /veh ZSCAN30 (11745921_a_at) / RFU CMKLR1 (11741424_a_at) / Fold change /veh CMKLR1 (11741424_a_at) / RFU LOC101060620 /// MAPK8IP1 (11723275_at) / Fold change /veh LOC101060620 /// MAPK8IP1 (11723275_at) / RFU SPTSSB (11747773_x_at) / Fold change /veh SPTSSB (11747773_x_at) / RFU PRSS12 (11739890_at) / Fold change /veh PRSS12 (11739890_at) / RFU BIN1 (11741810_x_at) / Fold change /veh BIN1 (11741810_x_at) / RFU WNT11 (11732464_a_at) / Fold change /veh WNT11 (11732464_a_at) / RFU C10orf10 (11716521_a_at) / Fold change /veh C10orf10 (11716521_a_at) / RFU C5orf56 (11738089_at) / Fold change /veh C5orf56 (11738089_at) / RFU CYB561 (11721691_x_at) / Fold change /veh CYB561 (11721691_x_at) / RFU ANKRD19P (11752326_a_at) / Fold change /veh ANKRD19P (11752326_a_at) / RFU OR2T12 /// OR2T33 /// OR2T8 (11738714_s_at) / Fold change /veh OR2T12 /// OR2T33 /// OR2T8 (11738714_s_at) / RFU VCAN (11748164_a_at) / Fold change /veh VCAN (11748164_a_at) / RFU JSRP1 (11732532_at) / Fold change /veh JSRP1 (11732532_at) / RFU KRTAP10-11 (11738290_x_at) / Fold change /veh KRTAP10-11 (11738290_x_at) / RFU MYO3A (11730013_a_at) / Fold change /veh MYO3A (11730013_a_at) / RFU EBF3 (11725865_a_at) / Fold change /veh EBF3 (11725865_a_at) / RFU CAMK2N1 (11719241_x_at) / Fold change /veh CAMK2N1 (11719241_x_at) / RFU C5orf56 (11738088_a_at) / Fold change /veh C5orf56 (11738088_a_at) / RFU OLFML3 (11715873_a_at) / Fold change /veh OLFML3 (11715873_a_at) / RFU LOC100653217 /// NTM (11731650_a_at) / Fold change /veh LOC100653217 /// NTM (11731650_a_at) / RFU MAPK11 (11762145_a_at) / Fold change /veh MAPK11 (11762145_a_at) / RFU FIZ1 (11724087_x_at) / Fold change /veh FIZ1 (11724087_x_at) / RFU OASL (11726364_x_at) / Fold change /veh OASL (11726364_x_at) / RFU SOX15 (11748057_x_at) / Fold change /veh SOX15 (11748057_x_at) / RFU CD79A (11719716_a_at) / Fold change /veh CD79A (11719716_a_at) / RFU HIST1H1D (11736915_at) / Fold change /veh HIST1H1D (11736915_at) / RFU CASKIN2 (11723855_a_at) / Fold change /veh CASKIN2 (11723855_a_at) / RFU LOC730098 (11760151_x_at) / Fold change /veh LOC730098 (11760151_x_at) / RFU OR4N2 (11742367_at) / Fold change /veh OR4N2 (11742367_at) / RFU PRRT2 (11749266_a_at) / Fold change /veh PRRT2 (11749266_a_at) / RFU SNX32 (11753110_a_at) / Fold change /veh SNX32 (11753110_a_at) / RFU CDHR5 (11726645_a_at) / Fold change /veh CDHR5 (11726645_a_at) / RFU RCAN1 (11760418_a_at) / Fold change /veh RCAN1 (11760418_a_at) / RFU FAM167A (11723789_a_at) / Fold change /veh FAM167A (11723789_a_at) / RFU FAM26E (11764081_at) / Fold change /veh FAM26E (11764081_at) / RFU ISYNA1 (11749810_s_at) / Fold change /veh ISYNA1 (11749810_s_at) / RFU ACY1 (11761880_at) / Fold change /veh ACY1 (11761880_at) / RFU 11764098_at / Fold change /veh 11764098_at / RFU SAMD14 (11745864_x_at) / Fold change /veh SAMD14 (11745864_x_at) / RFU NPB (11741838_a_at) / Fold change /veh NPB (11741838_a_at) / RFU TMPRSS6 (11731388_a_at) / Fold change /veh TMPRSS6 (11731388_a_at) / RFU KRTAP10-2 (11738614_at) / Fold change /veh KRTAP10-2 (11738614_at) / RFU ARHGAP8 /// PRR5-ARHGAP8 (11727945_x_at) / Fold change /veh ARHGAP8 /// PRR5-ARHGAP8 (11727945_x_at) / RFU KRTAP5-7 /// NADSYN1 (11734609_at) / Fold change /veh KRTAP5-7 /// NADSYN1 (11734609_at) / RFU RASL12 (11751679_a_at) / Fold change /veh RASL12 (11751679_a_at) / RFU CDKN2B (11736163_a_at) / Fold change /veh CDKN2B (11736163_a_at) / RFU PRF1 (11729649_at) / Fold change /veh PRF1 (11729649_at) / RFU, ZNF638 /// ZNF638-IT1 / Fold change vs veh, ZNF638 /// ZNF638-IT1 / RFU, PANK3 / Fold change vs veh, PANK3 / RFU, SH3YL1 / Fold change vs veh, SH3YL1 / RFU, ZEB2 / Fold change vs veh, ZEB2 / RFU, NRIP1 / Fold change vs veh, NRIP1 / RFU, PTTG1IP / Fold change vs veh, PTTG1IP / RFU, CAPN2 / Fold change vs veh, CAPN2 / RFU, MED14 / Fold change vs veh, MED14 / RFU, SNORA58 / Fold change vs veh, SNORA58 / RFU, C1orf63 / Fold change vs veh, C1orf63 / RFU, LRRFIP1 / Fold change vs veh, LRRFIP1 / RFU, NDUFAF7 / Fold change vs veh, NDUFAF7 / RFU, SLC12A2 / Fold change vs veh, SLC12A2 / RFU, IBTK / Fold change vs veh, IBTK / RFU, ESF1 / Fold change vs veh, ESF1 / Fold change vs veh, TMEM50B / RFU, TAOK1 / Fold change vs veh, TAOK1 / RFU, ACBD3 / Fold change vs veh, ACBD3 / RFU, TMA16 / Fold change vs veh, TMA16 / RFU, RWDD3 / Fold change vs veh, RWDD3 / RFU, BCAT1 / Fold change vs veh, BCAT1 / RFU, EDEM3 / Fold change vs veh, EDEM3 / RFU, TMEM33 / Fold change vs veh, TMEM33 / RFU, WDR75 / Fold change vs veh, WDR75 / RFU, AHCTF1 / Fold change vs veh, AHCTF1 / RFU, TFRC / Fold change vs veh, TFRC / RFU, ZDHHC17 / Fold change vs veh, ZDHHC17 / RFU, NOM1 / Fold change vs veh, NOM1 / RFU, ARL8B / Fold change vs veh, ARL8B / RFU, ZBTB11 / Fold change vs veh, ZBTB11 / RFU, TAMM41 / Fold change vs veh, TAMM41 / RFU, KIAA1704 /// LOC100996395 / Fold change vs veh, KIAA1704 /// LOC100996395 / RFU, ING1 / Fold change vs veh, ING1 / RFU, TRMT61B / Fold change vs veh, TRMT61B / RFU, FUBP3 / Fold change vs veh, FUBP3 / RFU, TP53 / Fold change vs veh, TP53 / RFU, TNKS2 / Fold change vs veh, TNKS2 / RFU, ZFP14 / Fold change vs veh, ZFP14 / RFU, ACTR2 / Fold change vs veh, ACTR2 / RFU, PPP3R1 / Fold change vs veh, PPP3R1 / RFU, PIK3R1 / Fold change vs veh, PIK3R1 / RFU, HNRNPA1 / Fold change vs veh, HNRNPA1 / RFU, RNF170 / Fold change vs veh, RNF170 / RFU, ZNF28 / Fold change vs veh, ZNF28 / RFU, RNGTT / Fold change vs veh, RNGTT / RFU, OGT / Fold change vs veh, OGT / RFU, BRD1 / Fold change vs veh, BRD1 / RFU, MARS / Fold change vs veh, MARS / RFU, ZNF655 / Fold change vs veh, ZNF655 / RFU, FAHD1 / Fold change vs veh, FAHD1 / RFU, BDP1 / Fold change vs veh, BDP1 / RFU, LRRCC1 / Fold change vs veh, LRRCC1 / RFU, ARID1A / Fold change vs veh, ARID1A / RFU, ZNF146 / Fold change vs veh, ZNF146 / RFU, ZNF330 / Fold change vs veh, ZNF330 / RFU, GPN3 / Fold change vs veh, GPN3 / RFU, C9orf123 / Fold change vs veh, C9orf123 / RFU, N4BP2L2 / Fold change vs veh, N4BP2L2 / RFU, ARFIP1 / Fold change vs veh, ARFIP1 / RFU, FAM179B / Fold change vs veh, FAM179B / RFU, BCL10 / Fold change vs veh, BCL10 / RFU, UHRF1BP1L / Fold change vs veh, UHRF1BP1L / RFU, BET1 / Fold change vs veh, BET1 / RFU, CNOT2 / Fold change vs veh, CNOT2 / RFU, ZNF268 / Fold change vs veh, ZNF268 / Fold change vs veh, ZNF507 / RFU, DGCR2 / Fold change vs veh, DGCR2 / RFU, WDSUB1 / Fold change vs veh, WDSUB1 / Fold change vs veh, HSP90B1 /// MIR3652 / RFU, ADSS / Fold change vs veh, ADSS / RFU, GK / Fold change vs veh, GK / RFU, ZNF148 / Fold change vs veh, ZNF148 / RFU, TAF9 / Fold change vs veh, TAF9 / RFU, SLC1A5 / Fold change vs veh, SLC1A5 / RFU, SLMO2 / Fold change vs veh, SLMO2 / RFU, ABCC4 / Fold change vs veh, ABCC4 / RFU, LOC101060439 /// RAP1B / Fold change vs veh, LOC101060439 /// RAP1B / RFU, RFX7 / Fold change vs veh, RFX7 / RFU, GTPBP10 / Fold change vs veh, GTPBP10 / RFU, CNEP1R1 / Fold change vs veh, CNEP1R1 / RFU, BIVM-ERCC5 /// ERCC5 / Fold change vs veh, BIVM-ERCC5 /// ERCC5 / RFU, ILF3 / Fold change vs veh, ILF3 / RFU 11762660_at / Fold change /veh 11762660_at / RFU VCAN (11757783_s_at) / Fold change /veh VCAN (11757783_s_at) / RFU DDX43 (11728927_at) / Fold change /veh DDX43 (11728927_at) / RFU KRT8 (11758188_x_at) / Fold change /veh KRT8 (11758188_x_at) / RFU NKD1 (11759106_at) / Fold change /veh NKD1 (11759106_at) / RFU SRD5A1 (11742802_a_at) / Fold change /veh SRD5A1 (11742802_a_at) / RFU TPSAB1 /// TPSB2 (11721975_s_at) / Fold change /veh TPSAB1 /// TPSB2 (11721975_s_at) / RFU GSTM3 (11746129_a_at) / Fold change /veh GSTM3 (11746129_a_at) / RFU IL23R (11737362_x_at) / Fold change /veh IL23R (11737362_x_at) / RFU TMEM51 (11727254_a_at) / Fold change /veh TMEM51 (11727254_a_at) / RFU PIWIL2 (11732686_x_at) / Fold change /veh PIWIL2 (11732686_x_at) / RFU ORM1 (11744905_x_at) / Fold change /veh ORM1 (11744905_x_at) / RFU CCDC152 (11743942_at) / Fold change /veh CCDC152 (11743942_at) / RFU ECM1 (11717891_a_at) / Fold change /veh ECM1 (11717891_a_at) / RFU IL23R (11748794_a_at) / Fold change /veh IL23R (11748794_a_at) / RFU TNFAIP8L3 (11732012_x_at) / Fold change /veh TNFAIP8L3 (11732012_x_at) / RFU MBOAT4 (11741988_at) / Fold change /veh MBOAT4 (11741988_at) / RFU 11764193_at / Fold change /veh 11764193_at / RFU TMEM53 (11763286_at) / Fold change /veh TMEM53 (11763286_at) / RFU MAGEB2 (11727129_at) / Fold change /veh MAGEB2 (11727129_at) / RFU TMEM200A (11744735_a_at) / Fold change /veh TMEM200A (11744735_a_at) / RFU CCDC152 (11751479_a_at) / Fold change /veh CCDC152 (11751479_a_at) / RFU FAM211A (11726209_a_at) / Fold change /veh FAM211A (11726209_a_at) / RFU RGS16 (11746705_a_at) / Fold change /veh RGS16 (11746705_a_at) / RFU VCAN (11755009_s_at) / Fold change /veh VCAN (11755009_s_at) / RFU RHOB (11743442_s_at) / Fold change /veh RHOB (11743442_s_at) / RFU RGS16 (11720943_a_at) / Fold change /veh RGS16 (11720943_a_at) / RFU RGS16 (11720944_at) / Fold change /veh RGS16 (11720944_at) / RFU, VPS4B / Fold change vs veh, VPS4B / RFU, CREB1 / Fold change vs veh, CREB1 / RFU, DNAJC13 / Fold change vs veh, DNAJC13 / RFU, GNAQ / Fold change vs veh, GNAQ / RFU, CDK5R1 / Fold change vs veh, CDK5R1 / RFU, ZRANB3 / Fold change vs veh, ZRANB3 / RFU, CUL4A / Fold change vs veh, CUL4A / RFU, CCNY / Fold change vs veh, CCNY / RFU, UFL1 / Fold change vs veh, UFL1 / RFU, COG3 / Fold change vs veh, COG3 / RFU, DIAPH2 / Fold change vs veh, DIAPH2 / RFU, SKA2 / Fold change vs veh, SKA2 / RFU, AFF3 / Fold change vs veh, AFF3 / RFU, LMF1 / Fold change vs veh, LMF1 / RFU, IPO11 / Fold change vs veh, IPO11 / RFU, DFFB / Fold change vs veh, DFFB / RFU, FOXP1 / Fold change vs veh, FOXP1 / RFU, CARD8 / Fold change vs veh, CARD8 / RFU, STRN3 / Fold change vs veh, STRN3 / RFU, ADK / Fold change vs veh, ADK / RFU, RASSF2 / Fold change vs veh, RASSF2 / RFU, WIPF1 / Fold change vs veh, WIPF1 / RFU, LARP1B / Fold change vs veh, LARP1B / RFU, RASA1 / Fold change vs veh, RASA1 / RFU, RB1 / Fold change vs veh, RB1 / RFU, PPFIA1 / Fold change vs veh, PPFIA1 / RFU, MAT2A / Fold change vs veh, MAT2A / RFU, CCT5 / Fold change vs veh, CCT5 / RFU, WDR92 / Fold change vs veh, WDR92 / RFU, CUX1 / Fold change vs veh, CUX1 / RFU, TTC7A / Fold change vs veh, TTC7A / RFU, TMEM135 / Fold change vs veh, TMEM135 / RFU, DEPTOR / Fold change vs veh, DEPTOR / RFU, CPM / Fold change vs veh, CPM / RFU, DNAJB6 / Fold change vs veh, DNAJB6 / RFU, CACNA2D3 / Fold change vs veh, CACNA2D3 / RFU, DTX4 / Fold change vs veh, DTX4 / RFU, TFCP2 / Fold change vs veh, TFCP2 / RFU, GMCL1 /// GMCL1P1 / Fold change vs veh, GMCL1 /// GMCL1P1 / RFU, AEBP2 / Fold change vs veh, AEBP2 / RFU, SNHG1 /// SNORD22 /// SNORD25 /// SNORD26 /// SNORD27 /// SNORD28 /// SNORD29 /// SNORD31 / Fold change vs veh, SNHG1 /// SNORD22 /// SNORD25 /// SNORD26 /// SNORD27 /// SNORD28 /// SNORD29 /// SNORD31 / Fold change (Aza/veh), C12orf56 (ProbeSet 11735607_a_at) / Fold change (ACY-1035/veh), C12orf56 (ProbeSet 11735607_a_at) / Fold change (Aza/veh), FGFR1OP (ProbeSet 11751329_s_at) / Fold change (ACY-1035/veh), FGFR1OP (ProbeSet 11751329_s_at) / Fold change (Aza/veh), VPS36 (ProbeSet 11739960_a_at) / Fold change (ACY-1035/veh), VPS36 (ProbeSet 11739960_a_at) / RFU SYPL1 (11715823_x_at) / Fold change /veh SYPL1 (11715823_x_at) / RFU IGFBP7 (11715501_s_at) / Fold change /veh IGFBP7 (11715501_s_at) / RFU REEP3 (11722064_at) / Fold change /veh REEP3 (11722064_at) / RFU IGLL1 (11728026_x_at) / Fold change /veh IGLL1 (11728026_x_at): dose or concentration left out as unconfirmed
Conditions: MV-4-11 cells, 48 hours

## Nc1ncn([C@@H]2O[C@H](CO)[C@@H](O)[C@H]2O)c(=O)n1 [azacitidine]
  Fold change /veh SPTSSB (11747773_x_at): 1.09
